Values joined by “and” are separate entries in the source; they are usually repeats but may differ in a detail not shown here. Equal entries are not always repeated. Where two headings read alike, the source gives them in different places.
Columns and labels:
[1] = test system: PAMPA
[2] = test system: PAMPA; remark: listed apart in the source
[3] = test system: PAMPA; remark: listed apart in the source
[4] = test system: PAMPA; conditions: calculated using Supplement Equation 1, UV detection
[5] = test system: PAMPA; conditions: UV detection
[6] = test system: PAMPA; remark: listed apart in the source
[7] = PAMPA, permeability assay across an artificial membrane; conditions: for Acceptor Concentration, Ave: after incubation
[8] = Papp (x 10^-6 cm/s) – ELSD Detection / [row 2], ELSD Detection
[9] = Papp (x 10^-6 cm/s) – ELSD Detection / [row 3], ELSD Detection
[10] = Papp (x 10^-6 cm/s) – ELSD Detection / [row 4], ELSD Detection
[11] = Papp (x 10^-6 cm/s) – ELSD Detection / [row 5], ELSD Detection
[12] = Papp (x 10^-6 cm/s) – ELSD Detection / [row 6], ELSD Detection
[13] = Papp (x 10^-6 cm/s) – ELSD Detection / [row 7], ELSD Detection
[14] = Papp (x 10^-6 cm/s) – ELSD Detection / [row 8], ELSD Detection
[15] = Papp (x 10^-6 cm/s) – ELSD Detection / [row 9], ELSD Detection
[16] = Papp (x 10^-6 cm/s) – ELSD Detection / [row 10], ELSD Detection
[17] = Papp (x 10^-6 cm/s) – UV Detection / [row 1], UV Detection
[18] = Papp (x 10^-6 cm/s) – UV Detection / [row 2], UV Detection
[19] = Papp (x 10^-6 cm/s) – UV Detection / [row 3], UV Detection
[20] = Papp (x 10^-6 cm/s) – UV Detection / [row 4], UV Detection
[21] = Papp (x 10^-6 cm/s) – UV Detection / [row 6], UV Detection
[22] = Papp (x 10^-6 cm/s) – UV Detection / [row 7], UV Detection
[23] = Papp (x 10^-6 cm/s) – UV Detection / [row 8], UV Detection
[24] = Papp (x 10^-6 cm/s) – UV Detection / [row 9], UV Detection
[25] = Papp (x 10^-6 cm/s) – UV Detection / [row 10], UV Detection
[26] = Acceptor Concentration (uM) – ELSD Detection / [row 1]
[27] = Acceptor Concentration (uM) – ELSD Detection / [row 2]
[28] = Acceptor Concentration (uM) – ELSD Detection / [row 3]
[29] = Acceptor Concentration (uM) – ELSD Detection / [row 4]
[30] = Acceptor Concentration (uM) – ELSD Detection / [row 5]
[31] = Acceptor Concentration (uM) – ELSD Detection / [row 6]
[32] = Acceptor Concentration (uM) – ELSD Detection / [row 7]
[33] = Acceptor Concentration (uM) – ELSD Detection / [row 8]
[34] = Acceptor Concentration (uM) – ELSD Detection / [row 9]
[35] = Acceptor Concentration (uM) – ELSD Detection / [row 10]
[36] = Acceptor Concentration (uM) – UV Detection / [row 1]
[37] = Acceptor Concentration (uM) – UV Detection / [row 2]
[38] = Acceptor Concentration (uM) – UV Detection / [row 4]
[39] = Acceptor Concentration (uM) – UV Detection / [row 5]
[40] = Acceptor Concentration (uM) – UV Detection / [row 6]
[41] = Acceptor Concentration (uM) – UV Detection / [row 7]
[42] = Acceptor Concentration (uM) – UV Detection / [row 8]
[43] = Acceptor Concentration (uM) – UV Detection / [row 9]
[44] = Acceptor Concentration (uM) – UV Detection / [row 10]

SMILES: CCCCC[C@@H]1OC(=O)[C@@H](C)N(C)C(=O)[C@H](CCCCC)OC(=O)[C@@H](C)N(C)C(=O)[C@H](CCCCC)OC(=O)[C@@H](C)N(C)C(=O)[C@H](CCCCC)OC(=O)[C@@H](C)N(C)C(=O)[C@H](CCCCC)OC(=O)[C@@H](C)N(C)C1=O [Compound C1.5]
- acceptor concentration after incubation ([1]; Well 5 / [acc]): 61.8 µM
- Papp [2, 8]: 2.93 ×10⁻⁶ cm/s
- Papp [2, 9]: 2.62 ×10⁻⁶ cm/s
- Papp [2, 10]: 2.78 ×10⁻⁶ cm/s
- Papp [2, 11]: 3.09 ×10⁻⁶ cm/s
- Papp [2, 12]: 2.8 ×10⁻⁶ cm/s
- Papp [2, 13]: 3.15 ×10⁻⁶ cm/s
- Papp [2, 14]: 2.83 ×10⁻⁶ cm/s
- Papp [2, 15]: 2.67 ×10⁻⁶ cm/s
- Papp [2, 16]: 3.08 ×10⁻⁶ cm/s
- Papp [2, 17]: 3.3 ×10⁻⁶ cm/s
- Papp [2, 18]: 3.13 ×10⁻⁶ cm/s
- Papp [2, 19]: 3.08 ×10⁻⁶ cm/s
- Papp [2, 20]: 2.85 ×10⁻⁶ cm/s
- Papp ([2]; Papp (x 10^-6 cm/s) – UV Detection / [row 5], UV Detection): 3.14 ×10⁻⁶ cm/s
- Papp [2, 21]: 3.54 ×10⁻⁶ cm/s
- Papp [2, 22]: 3.19 ×10⁻⁶ cm/s
- Papp [2, 23]: 3.6 ×10⁻⁶ cm/s
- Papp [2, 24]: 3.64 ×10⁻⁶ cm/s
- Papp [2, 25]: 3.64 ×10⁻⁶ cm/s
- donor concentration after incubation ([3]; Well 1 / [donor]): 379 µM and 372 µM
- donor concentration after incubation ([3]; Well 2 / [donor]): 370 µM and 384 µM
- donor concentration after incubation ([3]; Well 3 / [donor]): 400 µM and 367 µM
- donor concentration after incubation ([3]; Well 4 / [donor]): 389 µM and 372 µM
- donor concentration after incubation ([3]; Well 5 / [donor]): 376 µM and 362 µM
- %T ([4]; Well 1 / %T, Well 1): 0.44% and 0.46%
- %T ([4]; Well 2 / %T, Well 2): 0.42% and 0.43%
- %T ([4]; Well 3 / %T, Well 3): 0.42% and 0.47%
- %T ([4]; Well 4 / %T, Well 4): 0.39% and 0.47%
- %T ([4]; Well 5 / %T, Well 5): 0.42% and 0.47%
- % recovery ([5]; Well 2 / %R, Well 2): 86% and 90%
- % recovery ([5]; Well 3 / %R, Well 3): 93% and 88%
- % recovery ([5]; Well 5 / %R, Well 5): 88% and 87%
- Acceptor Concentration [6, 26]: 67.5 µM
- Acceptor Concentration [6, 27]: 63.9 µM
- Acceptor Concentration [6, 28]: 64.8 µM
- Acceptor Concentration [6, 29]: 62.3 µM
- Acceptor Concentration [6, 30]: 65.1 µM
- Acceptor Concentration [6, 31]: 65 µM
- Acceptor Concentration [6, 32]: 68.5 µM
- Acceptor Concentration [6, 33]: 67.7 µM
- Acceptor Concentration [6, 34]: 61.3 µM
- Acceptor Concentration [6, 35]: 66.1 µM
- Acceptor Concentration [6, 36]: 66.6 µM
- Acceptor Concentration [6, 37]: 60.4 µM
- Acceptor Concentration [6, 38]: 56.7 µM
- Acceptor Concentration [6, 39]: 61.9 µM
- Acceptor Concentration [6, 40]: 71.3 µM
- Acceptor Concentration [6, 41]: 64.8 µM
- Acceptor Concentration [6, 42]: 71.7 µM
- Acceptor Concentration [6, 43]: 73.6 µM
- Acceptor Concentration [6, 44]: 71.6 µM

SMILES: CCCCC[C@@H]1OC(=O)[C@@H](C)N(C)C(=O)[C@H](CCCCC)OC(=O)[C@@H](C)N(C)C(=O)[C@H](CCCCC)OC(=O)[C@@H](C)N(C)C(=O)[C@H](CCCCC)OC(=O)[C@@H](C)N(C)C(=O)[C@H](CCCCC)OC(=O)[C@@H](C)N(C)C(=O)[C@H](CCCCC)OC(=O)[C@@H](C)N(C)C1=O [Compound C1.6]
- acceptor concentration after incubation ([1]; Well 1 / [acc]): 38.6 µM and 51.1 µM
- acceptor concentration after incubation ([1]; Well 2 / [acc]): 37.6 µM and 41.4 µM
- acceptor concentration after incubation ([1]; Well 3 / [acc]): 41.9 µM
- acceptor concentration after incubation ([1]; Well 4 / [acc]): 31.6 µM and 49.1 µM
- acceptor concentration after incubation ([1]; Well 5 / [acc]): 37.4 µM
- Papp [2, 8]: 1.94 ×10⁻⁶ cm/s
- Papp [2, 9]: 1.99 ×10⁻⁶ cm/s
- Papp [2, 10]: 1.87 ×10⁻⁶ cm/s
- Papp [2, 11]: 1.89 ×10⁻⁶ cm/s
- Papp [2, 12]: 1.93 ×10⁻⁶ cm/s
- Papp [2, 13]: 1.88 ×10⁻⁶ cm/s
- Papp [2, 14]: 1.91 ×10⁻⁶ cm/s
- Papp [2, 15]: 1.8 ×10⁻⁶ cm/s
- Papp [2, 16]: 1.92 ×10⁻⁶ cm/s
- Papp [2, 17]: 1.95 ×10⁻⁶ cm/s
- Papp [2, 18]: 1.93 ×10⁻⁶ cm/s
- Papp [2, 19]: 1.95 ×10⁻⁶ cm/s
- Papp [2, 20]: 1.81 ×10⁻⁶ cm/s
- Papp [2, 21]: 2.59 ×10⁻⁶ cm/s
- Papp [2, 22]: 1.89 ×10⁻⁶ cm/s
- Papp [2, 23]: 1.91 ×10⁻⁶ cm/s
- Papp [2, 24]: 2.19 ×10⁻⁶ cm/s
- Papp [2, 25]: 1.87 ×10⁻⁶ cm/s
- donor concentration after incubation ([3]; Well 1 / [donor]): 407 µM and 377 µM
- donor concentration after incubation ([3]; Well 2 / [donor]): 404 µM and 445 µM
- donor concentration after incubation ([3]; Well 3 / [donor]): 368 µM and 446 µM
- donor concentration after incubation ([3]; Well 4 / [donor]): 379 µM and 438 µM
- donor concentration after incubation ([3]; Well 5 / [donor]): 406 µM and 417 µM
- %T ([4]; Well 1 / %T, Well 1): 0.63% and 0.58%
- %T ([4]; Well 2 / %T, Well 2): 0.65% and 0.63%
- %T ([4]; Well 3 / %T, Well 3): 0.63% and 0.59%
- %T ([4]; Well 4 / %T, Well 4): 0.66% and 0.6%
- %T ([4]; Well 5 / %T, Well 5): 0.62% and 0.63%
- % recovery ([5]; Well 1 / %R, Well 1): 89% and 86%
- % recovery ([5]; Well 2 / %R, Well 2): 88% and 97%
- % recovery ([5]; Well 3 / %R, Well 3): 80% and 98%
- % recovery ([5]; Well 4 / %R, Well 4): 82% and 97%
- % recovery ([5]; Well 5 / %R, Well 5): 89% and 91%
- Acceptor Concentration [6, 26]: 27.2 µM
- Acceptor Concentration [6, 27]: 30 µM
- Acceptor Concentration [6, 28]: 25.6 µM
- Acceptor Concentration [6, 29]: 29.3 µM
- Acceptor Concentration [6, 30]: 27.1 µM
- Acceptor Concentration [6, 31]: 45.6 µM
- Acceptor Concentration [6, 32]: 39.3 µM
- Acceptor Concentration [6, 33]: 42.2 µM
- Acceptor Concentration [6, 34]: 25.8 µM
- Acceptor Concentration [6, 35]: 46.7 µM
- Acceptor Concentration [6, 36]: 38.6 µM
- Acceptor Concentration [6, 37]: 37.6 µM
- Acceptor Concentration ([6]; Acceptor Concentration (uM) – UV Detection / [row 3]): 33.9 µM
- Acceptor Concentration [6, 38]: 31.6 µM
- Acceptor Concentration [6, 39]: 37 µM
- Acceptor Concentration [6, 40]: 51.1 µM
- Acceptor Concentration [6, 41]: 41.4 µM
- Acceptor Concentration [6, 42]: 41.9 µM
- Acceptor Concentration [6, 43]: 49 µM
- Acceptor Concentration [6, 44]: 37.4 µM
- Diffusion (%) ([7]; PAMPA percent diffusion, C0 500 uM): 6.78% and 7% and 6.8 ± 1.7%
- Recovery (%) ([7]; PAMPA, (acceptor + donor)/total analyte, C0 500 uM): 90%
- Papp at 500 uM ([7]; PAMPA, Ave, ELSD detection, C0 500 uM): 1.9 ×10⁻⁶ cm/s
- Papp at 500 uM ([7]; PAMPA, ratio-based method, mean ± SD, C0 500 uM, UV detection): 2 ± 0.23 ×10⁻⁶ cm/s
- recovery at 500 uM ([7]; PAMPA, Recovery (%), PAMPA, (acceptor + donor)/total analyte, C0 500 uM): 89.7%
- Acceptor Concentration, Ave ([7]; PAMPA, ELSD detection, C0 500 uM): 33.9 µM
- Acceptor Concentration, Ave ([7]; PAMPA, UV detection, C0 500 uM): 39.95 µM
- Δ % diffusion ([7]; increase: difference between percent diffusion of macrocycle vs linear counterpart): ↑2%

Source: article PMC11995216, “End-to-End Backbone Cyclization Enhances Passive Permeability of bRo5 Oligomeric Depsipeptides with Nonlinear Size Dependence” (ACS Medicinal Chemistry Letters, 2025)
